# Data: US20110257176A1, “NITROGEN HETEROCYCLE DERIVATIVES AS PROTEASOME MODULATORS” (INSTITUT NATIONAL DE LA SANTE ET DE LA RECHERCHE MEDICALE …, priority 2008, published 2011)
# Key:
# [1] = biological target: T1, rabbit reticulocyte 20S proteasome, chymotrypsin-like (CT-L) activity (UniProt G1T4Q9); test: 20S proteasome chymotrypsin-like (CT-L) activity, Suc-LLVY-AMC hydrolysis; format: biochemical; conditions: rabbit 20S proteasome, pH 8, 37° C.
# T1 construct: IC50 on chymotrypsin-like activity; other: rabbit 20S proteasome, pH 8, 37° C; Rabbit erythrocyte 20S proteasome was obtained from Boston Biochem, Cambridge, USA
# Description: (§1) Rabbit erythrocyte 20S proteasome was obtained from Boston Biochem, Cambridge, USA. The fluorogenic substrates Suc-LLVY-AMC, Boc-LRR-AMC and Z-LLE-βNA used to measure the proteasome activities CT-L, T-L and PA respectively were purchased from Bachem (France). Other reagents and solvents were purchased from commercial sources. Fluorescence was measured using a BMG Fluostar microplate reader.
# (§2) Compounds 1-23 were tested for their potential to inhibit the CT-L, T-L and PA activities of the rabbit reticulocyte 20S proteasome. Enzyme activities were determined by monitoring the hydrolysis of the appropriate fluorogenic substrate (λexc=360, λem=465 nm for AMC substrates, and λexc=340, λem=405 nm for the βNA substrate) for 1 h at 37° C.
# (§3) In the in vitro screening, each compound was tested in duplicate against the three activities, at 100 μM and 50 μM in the corresponding buffer. The buffer were (pH 8): 50 mM Tris, 150 mM NaCl, 10% (v/v) glycerol, 0.025% (w/v) SDS, and 3% (v/v) DMSO (CT-L and PA activities); 50 mM Tris, 150 mM NaCl, 10% (v/v) glycerol, and 3% (v/v) DMSO (T-L activity).
# (§4) The inhibitory activity of compounds is expressed as IC50, which corresponds to the concentration of proteasome inhibitor leading to a loss of activity of 50%. The values of IC50 were calculated by fitting the experimental data to equation 1: % Inhibition=100×(1−Vi/V0)=100 [I]0/(IC50+[I]0), or equation 2: % Inhibition=100 [I]0^nH/(IC50^nH+[I]0^nH), where Vi is the initial rate in the presence of the inhibitor, V0 is the initial rate in the absence of the inhibitor, [I]0 is the inhibitor concentration, nH is the Hill number (FIG. 1).
# [2] = biological target: rabbit reticulocyte 20S proteasome, post-acid (PA) activity (Oryctolagus cuniculus, UniProt G1T235); test: 20S proteasome post-acid (PA) activity, Z-LLE-βNA hydrolysis; format: biochemical; set-up: key to Inhibition of post-acid activity (NI): NI: No Inhibition; conditions: rabbit 20S proteasome, screened at 100 μM and 50 μM
# Description: as §1, §2, §3, §4
# [3] = tested on: rabbit reticulocyte 20S proteasome, trypsin-like (T-L) activity; test: 20S proteasome trypsin-like (T-L) activity, Boc-LRR-AMC hydrolysis; format: biochemical; set-up: key to Inhibition of trypsin-like activity (NI): NI: No Inhibition; conditions: rabbit 20S proteasome; for Inhibition of trypsin-like activity (NI): screened at 100 μM and 50 μM
# Description: as §1, §2, §3, §4
# [4] = tested on: HeLa cells; test: Cell viability, XTT assay, HeLa; format: cell-based; conditions: Homo sapiens, 48 h, read-out: EC50, concentration inhibiting cell growth by 50%
# Description: The cell survival was determined with the XTT assay. Human cells (HeLa from cervical carcinoma and HEK-293 from epithelial kidney) were obtained from Invitrogen (Cergy-Pontoise, France). The cells were grown at 37° C. in DMEM supplemented with 10% fetal bovine serum (Invitrogen) in a humidified atmosphere of 5% CO2 and 95% air.
# 5×10^3 cells in 100 μL culture medium were exposed for 48 h in 96-well plates to increasing concentrations of compounds: 5-100 μM, final concentration of DMSO is 1% (v/v). The culture medium is then replaced by 100 μL of DMEM F12 culture medium devoid of phenol red and containing a mixture of XTT (0.3 mg/mL) and PMS (8.3 nM) (XTT: 2,3-bis[2-methoxy-4-nitro-5-sulfophenyl-2H-tetrazolium-5-carboxyanilide sodium; PMS: phenazine methosulfate, both purchased from Sigma, Saint Quentin Fallavier, France). Cells were then incubated for 3 h at 37° C.
# During this incubation, the mitochondrial deshydrogenases of viable cells hydrolyzed the tetrazolium cycle of XTT, leading to orange formazan crystals soluble in aqueous solution.
# The orange color was measured at 485 nm using a BMG Fluostar microplate reader.
# In control experiments, cells were treated by the vehicule (DMSO) at the same concentration than that used for the inhibitors.
# The cytotoxicity activity of drags was expressed as the concentration inhibiting cell growth by 50% (EC50) calculated from the survival curves. […]
# [5] = biological target: T2, human calpain-I (Homo sapiens, UniProt P07384); test: Selectivity: inhibition of calpain-I; format: biochemical; conditions: 100 μM compound
# T2 sequence (P07384 1-714): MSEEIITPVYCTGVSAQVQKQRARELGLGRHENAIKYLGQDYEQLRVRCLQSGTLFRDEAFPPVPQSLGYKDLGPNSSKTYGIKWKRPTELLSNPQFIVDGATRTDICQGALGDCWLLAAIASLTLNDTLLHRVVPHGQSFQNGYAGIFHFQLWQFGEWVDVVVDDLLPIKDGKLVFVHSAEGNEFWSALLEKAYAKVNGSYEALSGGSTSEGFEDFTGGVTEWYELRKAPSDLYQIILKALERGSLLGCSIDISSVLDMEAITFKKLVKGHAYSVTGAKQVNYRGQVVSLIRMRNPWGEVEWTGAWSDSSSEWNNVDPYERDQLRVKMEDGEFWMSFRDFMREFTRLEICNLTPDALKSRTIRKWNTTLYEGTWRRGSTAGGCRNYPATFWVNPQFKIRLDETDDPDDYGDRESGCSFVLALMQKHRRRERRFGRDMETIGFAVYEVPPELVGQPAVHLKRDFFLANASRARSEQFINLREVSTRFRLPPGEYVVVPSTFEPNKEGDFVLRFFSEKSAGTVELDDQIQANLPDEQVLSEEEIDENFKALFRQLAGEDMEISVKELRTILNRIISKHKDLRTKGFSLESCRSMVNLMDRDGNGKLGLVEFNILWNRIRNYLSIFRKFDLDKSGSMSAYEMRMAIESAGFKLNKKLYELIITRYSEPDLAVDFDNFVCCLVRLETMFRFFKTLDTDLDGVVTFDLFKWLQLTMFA
# T2 sequence (P04632 1-268 partner): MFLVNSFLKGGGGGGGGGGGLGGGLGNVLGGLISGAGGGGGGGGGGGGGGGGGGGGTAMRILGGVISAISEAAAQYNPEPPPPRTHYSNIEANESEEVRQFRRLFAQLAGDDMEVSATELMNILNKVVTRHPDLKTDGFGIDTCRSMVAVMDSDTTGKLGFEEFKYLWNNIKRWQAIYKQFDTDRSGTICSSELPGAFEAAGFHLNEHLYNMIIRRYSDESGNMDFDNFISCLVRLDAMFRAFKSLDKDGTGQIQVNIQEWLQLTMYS
# [6] = biological target: human cathepsin B (Homo sapiens, UniProt P07858); test: Selectivity: inhibition of cathepsin B; format: biochemical; conditions: 100 μM compound
# T1 sequence (G1T4Q9 entry or part of it): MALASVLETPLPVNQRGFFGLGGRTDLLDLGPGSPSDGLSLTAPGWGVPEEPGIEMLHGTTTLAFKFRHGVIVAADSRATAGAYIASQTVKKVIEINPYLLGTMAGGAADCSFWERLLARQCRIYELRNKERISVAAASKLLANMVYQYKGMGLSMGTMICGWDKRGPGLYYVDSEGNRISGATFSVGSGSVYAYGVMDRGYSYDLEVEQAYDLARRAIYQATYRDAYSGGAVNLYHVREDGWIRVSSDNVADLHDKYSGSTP
# Chain of rabbit reticulocyte 20S proteasome, post-acid (PA) activity (G1T235 entry or part of it): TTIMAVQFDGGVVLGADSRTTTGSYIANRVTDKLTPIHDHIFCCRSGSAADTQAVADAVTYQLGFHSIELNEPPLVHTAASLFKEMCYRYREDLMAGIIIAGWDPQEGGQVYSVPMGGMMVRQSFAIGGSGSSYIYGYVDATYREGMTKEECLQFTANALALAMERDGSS
Structure (SMILES),IC50 [1],Inhibition of post-acid activity (NI) [2],Inhibition of trypsin-like activity (NI) [3],EC50 [4],Inhibition of human calpain-I (in words) [5],inhibition at 100 µM [5],% inhibition (inhibitor concentration) on trypsin-like activity ([3]; 100 μM inhibitor),Inhibition of human cathepsin B (in words) [6]
Cc1ccc(-c2noc(CN(C(=O)COc3ccc(C(C)C)cc3)C(C)C)n2)cc1 [Compound 1],~7 µM,NI,NI,44 ± 3.8 µM,–,–,–,–
Cc1cccc(-c2noc(CN(C(=O)COc3ccc(C(C)C)cc3)C(C)C)n2)c1 [Compound 2],~1 µM,NI,NI,32 ± 3.6 µM,–,–,–,–
COc1ccc(OCC(=O)N(Cc2nc(-c3ccccc3)no2)C(C)C)cc1 [Compound 6],1.02 ± 0.16 µM,NI,–,–,no inhibition,–,–,–
C=CCN(Cc1nc(-c2ccc(OC)cc2)no1)C(=O)COc1ccccc1 [Compound 8],1.66 ± 0.12 µM,NI,NI,–,–,≤ 30%,–,–
COc1ccc(-c2noc(CN(C(=O)COc3ccccc3)C(C)C)n2)cc1 [Compound 9],3.96 ± 0.75 µM,NI,NI,–,–,≤ 30%,–,–
COc1ccc(-c2noc(CN(C(=O)COc3cccc(C)c3)C(C)C)n2)cc1 [Compound 13],2.33 ± 0.28 µM,NI,–,–,–,–,28% (100 μM),no inhibition
COc1ccc(OCC(=O)N(Cc2nc(-c3ccc(C)cc3)no2)C(C)C)cc1 [Compound 16],2.49 ± 0.91 µM,NI,NI,–,no inhibition,–,–,–
